Results on 6 compounds are retold here after ChEMBL document CHEMBL1201862, “PubChem BioAssay data set” (2004).

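In this assay, cells in 96-well plates receive the compound at five concentrations for 48 hours. Endpoints are linearly interpolated between the surrounding concentrations. GI50 = concentration required for 50% inhibition of growth.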 Calls of active or inactive are those of the source. No stated cut-off is given here; in the data, active = GI50 up to about 1.1 µM and inactive = higher.

Holding throughout (assay): NCI tumour cell line growth inhibition, 48 h
In test [1] the test system is KM12.
The subject of test [2] is SK-MEL-5.
Test [3] deals with K562.
The subject of test [4] is OVCAR-3.
The subject of test [5] is TK-10.
The subject of test [6] is ACHN.
In test [7] the test system is LOX IMVI.
For test [8], the system named is SF-539.
For test [9], the system named is LXFL 529.
The subject of test [10] is SNB-19.
Test [11] concerns SNB-75.
Test [12] relates to HL-60.
For test [13], the system named is UO-31.
Test [14] has as its system Malme-3M.
Test [15] concerns SK-OV-3.
Test [16] deals with SN12C.
Test [17] deals with T47D.
Test [18] deals with NCI/ADR-RES.
The subject of test [19] is MDA-MB-231.
For test [20], the system named is Hs-578T.

In the case of `CC1=C(C(=O)CC(=O)C(=O)Nc2ccc(Cl)cc2C)Sc2ccccc2N1`, the GI50 in test [1], in test [2], in [3], in test [4], in test [5] and in test [6] was > 100 µM (inactive) each time. The GI50 in [7], in [8], in test [9], in test [10], in test [11] and in test [12] was > 100 µM (inactive) in each case. In addition, the GI50 in test [13], in test [14], in test [15] and in test [16] was > 100 µM (inactive) in each case.

Consider `N=C(N)NS(=O)(=O)c1ccc(NC(=O)c2cccc3c(Nc4ccc(S(=O)(=O)N=C(N)N)cc4)c4ccccc4nc23)cc1`, for which the GI50 in test [1] was 33.4 µM (inactive); in [2], 22.2 µM (inactive); in test [3] it was 5.98 µM (inactive); in [4] it was 50.1 µM (inactive); in [5] it was 52 µM (inactive); in [6], 51.1 µM (inactive). Moreover, the GI50 in test [7] was 43.3 µM (inactive); in [8], 41.1 µM (inactive); in test [9], 26.5 µM (inactive); in [10] it was > 100 µM (inactive); in test [11], 6.05 µM (inactive); in [12], 27 µM (inactive). Also, the GI50 in [13] is > 100 µM (inactive); in test [14], > 100 µM (inactive); in [15] it was 72.6 µM (inactive); in test [16] it was > 100 µM (inactive).

In the case of `CCOC(=O)CC(NC(=O)c1nc[nH]c1/N=N/N(C)C)C(=O)OCC` (stereo unspecified), the GI50 in [1], in [2], in [3], in [4], in [5] and in test [6] was > 100 µM (inactive) throughout. Further, the GI50 in [7], in test [8], in test [9], in [10], in [11] and in test [12] was > 100 µM (inactive) in each case. In addition, the GI50 in test [13], in test [14], in test [15] and in test [16] was > 100 µM (inactive) in each case.

Regarding `C/C1=C/C2OC(=O)C3(C)C2C(CC2(C)OC1=CC2=O)OC3(O)C(C)C` (stereo unspecified), the GI50 is 27 µM (inactive) in test [1]; 58.2 µM (inactive) in test [17]; 23.6 µM (inactive) in test [2]; 32.7 µM (inactive) in test [3]; 31.2 µM (inactive) in [4]; 41.5 µM (inactive) in [5]. The GI50 in test [6] is 33.9 µM (inactive); in test [18], 59 µM (inactive); in test [19] it was > 100 µM (inactive); in test [7], 31.4 µM (inactive); in [20], 59 µM (inactive); in [8], 41.4 µM (inactive). Besides, the GI50 was 27.4 µM (inactive) in test [9]; 42.5 µM (inactive) in test [10]; > 61.1 µM (inactive) in test [11]; 18.7 µM (inactive) in [12]; 84.1 µM (inactive) in test [13]; 33.5 µM (inactive) in test [14]. Besides, the GI50 in [15] is 46 µM (inactive); in [16] it was 31.4 µM (inactive).

Regarding `C#Cc1cccc(N2C(=O)CCC2=O)c1`, the GI50 in test [1] was 13.6 µM (inactive); in test [17] it was 18.9 µM (inactive); in test [2], 20.5 µM (inactive); in test [3] it was 2.65 µM (inactive); in test [4] it was 18.9 µM (inactive); in test [5] it was 16.2 µM (inactive). Also, the GI50 in test [6] is 16.7 µM (inactive); in [19], 12.2 µM (inactive); in [7] it was 16.8 µM (inactive); in test [20], 17.3 µM (inactive); in [8], 21.5 µM (inactive); in [9], 11.1 µM (inactive). Besides, the GI50 in test [10] was 31.4 µM (inactive); in [11], 13.6 µM (inactive); in test [12], 2.25 µM (inactive); in test [13], 17.7 µM (inactive); in test [14] it was 14.7 µM (inactive); in [15] it was 21 µM (inactive). In test [16], the GI50 is 18.5 µM (inactive).

For the compound `C/C1=C\[C@@H](O)C(=O)/C=C/C=C\c2csc(n2)[C@@H](C)NC(=O)C[C@@]2(CC1)[S+]([O-])SC(=O)[C@]2(C)O` (stereo partly specified) [LEINAMYCIN], the GI50 in test [1] was 0.0813 µM (active); in [17], 0.00102 µM (active); in test [2] it was 0.00673 µM (active); in [3], 0.00456 µM (active); in test [4], 0.0112 µM (active); in [5], 0.0266 µM (active). Further, the GI50 was 0.0137 µM (active) in [18]; 0.0321 µM (active) in [19]; 0.0116 µM (active) in test [7]; 0.0337 µM (active) in test [20]; 0.00968 µM (active) in test [8]; 0.0139 µM (active) in test [9]. Besides, the GI50 in test [10] was 0.284 µM (active); in [11] it was 0.0252 µM (active); in test [12] it was 0.000752 µM (active); in test [13], 0.0308 µM (active); in test [14] it was 0.00656 µM (active); in test [15], 0.138 µM (active). Besides, in test [16], the GI50 is 0.0203 µM (active).
